Laboratory results published in patent publication US10112949B2, “6,7-dihydropyrazolo[1,5-a]pyrazin-4(5H)-one compounds and their use as negative allosteric modulators of mGluR2 receptors” (Janssen Pharmaceutica NV, priority 2014, dated 2018).
Like-named read-outs stand apart in the source and are kept apart here.

Columns and labels:
[1] = system: rats; test: Reversal of the effect of the mGluR2 PAM JNJ-42153605-induced inhibition of scopolamine-induced hyperlocomotion; format: in vivo, rat; details: for ED50: rat, route PO (route cell empty for Co. No. 22, 25, 18, 19, 29), criterion total distance >1500 cm, read-out: ED50 SCOP JNJ-42153605
Procedure: 2) Reversal of the Effect of the mGluR2 PAM JNJ-42153605-Induced Inhibition of Scopolamine-Induced Hyperlocomotion Apparatus
Motor activity was measured in microprocessor-based motor activity arenas (closed gray PVC cylinders with a height of 39 cm and a diameter of 31 cm). Each arena was placed on an infrared LED (8×8 LEDs) lit box (white PVC squared box; 40×40 cm^2; height 12.5 cm. An infrared-sensitive tube camera and a white light source were mounted to the ceiling above the observation chamber to track the animal. The total distance traveled (cm) was recorded and analyzed using the Noldus Ethovision XT Video Tracking System (Version 7.0.418; Noldus, Wageningen, The Netherlands). The intensity of the light within the activity cages (measured in the centre at the level of the floor) ranged between 4 and 8 LUX.
The rats were pretreated with test compound or vehicle at 60 min before the start of the activity recordings and placed into individual cages. The rats were challenged with JNJ-42153605 (3-(cyclopropylmethyl)-7-(4-phenylpiperidin-1-yl)-8-(trifluoromethyl)-[1,2,4]triazolo[4,3-a]pyridine; WO2010/130424; Cid et al. J. Med. Chem. 2012, 55, 8770-8789) (20 mg/kg, i.v.) 30 min before the start of the activity recording combined with scopolamine (0.16 mg/kg, i.v.) just before the start of the activity measurements. Immediately after the injection of scopolamine, the rats were placed into the activity monitors and total distance travelled over the first 30 min was measured.
Solvent-Pretreated Control Rats.
For reversal of the inhibitory effect of JNJ-42153605 on the scopolamine-induced hyperlocomotion, the following all-or-none criteria were adopted: (1) reversal: total distance >1500 cm.

[2] = molecular target: human mGlu2 receptor (Homo sapiens, UniProt Q14416); test: [35S]GTPγS binding assay, negative allosteric modulation of mGluR2; details: for Emax: read-out: GTPγS - hmGluR2 anGT Emax;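 as to all read-outs here: membranes from CHO cells expressing the receptor, compound with glutamate near EC80 (60 µM), 30 min preincubation then 30 min label uptake at 30 °C, percent of control glutamate response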
Procedure: Here we describe the use of the [^35S]GTPγS binding assay using membranes from cells transfected with the human mGlu2 receptor and adapted from Schaffhauser et al. (Molecular Pharmacology, 2003, 4:798-810) for the detection of the negative allosteric modulation (NAM) properties of the compounds of this invention.
CHO-cells were cultured to pre-confluence and stimulated with 5 mM butyrate for 24 h. Cells were then collected by scraping in PBS and cell suspension was centrifuged (10 min at 4000 RPM in benchtop centrifuge). Supernatant was discarded and pellet gently resuspended in 50 mM Tris-HCl, pH 7.4 by mixing with an Ultra Turrax homogenizer. The suspension was centrifuged at 12,400 RPM (Sorvall F14S-6x250Y) for 10 minutes and the supernatant discarded. The pellet was homogenized in 5 mM Tris-HCl, pH 7.4 using an Ultra Turrax homogenizer and centrifuged again (13,000 RPM, 20 min, 4° C.). The final pellet was resuspended in 50 mM Tris-HCl, pH 7.4 and stored at −80° C. in appropriate aliquots before use. Protein concentration was determined by the Bradford method (Bio-Rad, USA) with bovine serum albumin as standard.
Measurement of mGluR2 negative allosteric modulatory activity of test compounds was performed as follows. Test compounds and glutamate were diluted in assay buffer containing 10 mM HEPES acid, 10 mM HEPES salt, pH 7.4, 100 mM NaCl, 3 mM MgCl2 and 10 μM GDP. Human mGlu2 receptor-containing membranes were thawed on ice and diluted in assay buffer supplemented with 18 μg/ml saponin. Membranes were pre-incubated with compound together with a predefined (˜EC80) concentration of glutamate (60 μM) for 30 min at 30° C. After addition of [^35S]GTPγS (f.c. 0.1 nM), assay mixtures were shaken briefly and further incubated to allow [^35S]GTPγS incorporation on activation (30 minutes, 30° C.). Final assay mixtures contained 7 μg of membrane protein in 10 mM HEPES acid, 10 mM HEPES salt, pH 7.4, 100 mM NaCl, 3 mM MgCl2, 10 μM GDP and 10 μg/ml saponin. Total reaction volume was 200 μl. Reactions were terminated by rapid filtration through Unifilter-96 GF/B plates (Perkin Elmer, Massachusetts, USA) using a 96-well filtermate universal harvester. Filters were washed 6 times with ice-cold 10 mM NaH2PO4/10 mM Na2HPO4, pH 7.4. Filters were then air-dried and 30 μl of liquid scintillation cocktail (Microscint-O) was added to each well. Membrane-bound radioactivity was counted in a Topcount.
Data were calculated as % of the control glutamate response, defined as the response that is generated upon addition of an EC80-equivalent concentration of glutamate. Sigmoid concentration-response curves plotting these percentages versus the log concentration of the test compound were analyzed using non-linear regression analysis. The concentration producing half-maximal inhibition was calculated as the IC50. The pIC50 values were calculated as the −log IC50, when the IC50 is expressed in M. Emax is defined as the relative maximal effect (i.e. maximal % inhibition relative to the control glutamate response).

[3] = Induction of mydriasis; details: Wiga, in vivo, rat, route PO; for ED50: maximum pupil diameter >25 units over 1, 2 or 3 h post-administration, read-out: ED50 MYD Test 2
Procedure: 3) Induction of Mydriasis
The pupil diameter of Wiga rats was measured with a microscopic micrometer (1 unit= 1/24 mm). Criteria for drug-induced effects: pupil diameter >25 units for mydriasis (in controls: 1.9%) 1 h post-administration of the test compound (test 1) or 1, 2 or 3 h post-administration of the test compound (test 2, wherein the maximum pupil diameter over the full 3 h period is reported).

[4] = system: apomorphine-challenged rats; test: Reversal of LY-404039-induced decrease of palpebral opening in apomorphine-challenged rats; format: in vivo, rat; details: for ED50: rat, criterion cumulative palpebral opening score >26, read-out: ED50 APO LY-404039
Procedure: B) In Vivo Pharmacology 1) Reversal of LY-404039-Induced Decrease of Palpebral Opening in Apomorphine-Challenged Rats.
Male Wiga Wistar rats (Crl:WI; Charles River Germany; 220±40 g) were housed under standard laboratory conditions (21±2° C.; 50-65% relative humidity; light-dark cycle set at 12 h; lights on at 6.00 h) and fasted overnight prior to the start of the experiments (tap water remained available ad libitum). During the test period, they were housed in individual cages. Palpebral opening was scored every 5 min over the first hour after injection of apomorphine (1.0 mg/kg, i.v.) in animals either pretreated or not pretreated with LY-404039 (2.5 mg/kg, s.c.) at 1 h prior to the apomorphine injection. The animals were also pretreated with test compound or solvent at a predefined interval before apomorphine challenge. The score system was: (5) exophthalmos, (4) wide open, (3) open for three-quarters, (2) half open, (1) open for one-quarter, (0) closed. The scores for palpebral opening were cumulated over the 60-min observation period.

[5] = historical solvent-pretreated control rats, first 30 min
[6] = control rats, scores cumulated over 60 min

Chain of human mGlu2 receptor (Q14416 19-872): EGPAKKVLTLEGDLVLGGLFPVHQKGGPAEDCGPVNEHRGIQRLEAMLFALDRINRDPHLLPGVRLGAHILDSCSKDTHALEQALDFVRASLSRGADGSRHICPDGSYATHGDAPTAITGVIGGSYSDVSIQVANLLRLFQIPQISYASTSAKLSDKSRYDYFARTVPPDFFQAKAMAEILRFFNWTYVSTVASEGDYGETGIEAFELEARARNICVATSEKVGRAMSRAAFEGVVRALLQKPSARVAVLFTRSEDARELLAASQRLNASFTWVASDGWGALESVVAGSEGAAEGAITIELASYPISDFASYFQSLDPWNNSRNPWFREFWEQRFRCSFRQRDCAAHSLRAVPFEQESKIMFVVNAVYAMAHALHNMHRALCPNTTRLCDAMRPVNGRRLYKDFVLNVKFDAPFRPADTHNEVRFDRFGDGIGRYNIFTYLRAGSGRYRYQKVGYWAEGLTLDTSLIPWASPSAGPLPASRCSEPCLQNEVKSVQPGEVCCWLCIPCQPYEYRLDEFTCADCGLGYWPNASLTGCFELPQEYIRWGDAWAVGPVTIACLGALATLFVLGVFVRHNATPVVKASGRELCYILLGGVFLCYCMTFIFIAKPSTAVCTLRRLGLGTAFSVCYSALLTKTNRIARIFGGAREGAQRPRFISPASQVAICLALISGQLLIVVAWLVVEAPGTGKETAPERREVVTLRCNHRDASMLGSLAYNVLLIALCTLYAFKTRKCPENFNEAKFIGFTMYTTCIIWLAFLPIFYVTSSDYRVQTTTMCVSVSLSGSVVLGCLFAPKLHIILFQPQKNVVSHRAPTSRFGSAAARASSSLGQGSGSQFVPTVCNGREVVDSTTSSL

| IC50 [2] [nM] | Emax [2] [%] | SMILES | also measured |
| --- | --- | --- | --- |
|  |  | CN1[C@@H]2C[C@@H](OC(=O)[C@H](CO)c3ccccc3)C[C@H]1[C@@H]1O[C@@H]12 [Scopolamine, scopolamine, reference compound] | Total distance >1500 cm (%) [1, 5]: 100%; Total distance >4400 cm (%) [1, 5]: 95.8%; Total distance travelled, Median (cm) [1, 5]: 7246 cm |
| 37.2 | 108 | C[C@H]1CN(c2ccc(C(F)(F)F)cc2)C(=O)c2c(C#Cc3cncc(CF)c3)cnn21 [compound 26] |  |
| 10.2 | 103 | Cc1ccc(C#Cc2cnn3c2C(=O)N(c2ccc(C(F)(F)F)cc2)C[C@@H]3C)cn1 [compound 11] |  |
| 97.7 | 106 | COCc1cncc(C#Cc2cnn3c2C(=O)N(c2ccc(C(F)(F)F)cc2)C[C@@H]3C)c1 [compound 27] |  |
| 2.95 | 106 | C[C@H]1CN(c2ccc(C(F)(F)F)cc2)C(=O)c2c(C#Cc3cnc(N)cc3CO)cnn21 [compound 29] | ED50 [1]: > 0.63 mg/kg |
| 9.33 | 106 | CNc1ccc(C#Cc2cnn3c2C(=O)N(c2ccc(C(F)(F)F)c(OC)n2)C[C@@H]3C)cn1 [compound 32] |  |
| 2.14 | 104 | C[C@H]1CN(c2ccc(C(F)(F)F)c(CF)n2)C(=O)c2c(C#Cc3ccc(N)nc3)cnn21 [compound 19] | ED50 [1]: > 0.63 mg/kg |
| 6.76 | 105 | C[C@H]1CN(c2ccc(Cl)c(Cl)c2)C(=O)c2c(C#Cc3ccc(F)nc3)cnn21 [compound 7] |  |
| 24 | 102 | COCc1cc(C#Cc2cnn3c2C(=O)N(c2ccc(C(F)(F)F)cc2)C[C@@H]3C)cnc1N [compound 20] |  |
| 2.24 | 105 | COCc1cc(N)ncc1C#Cc1cnn2c1C(=O)N(c1ccc(C(F)(F)F)cc1)C[C@@H]2C [compound 25] | ED50 [1]: 0.08 mg/kg |
| 33.1 | 107 | C[C@H]1CN(c2ccc(Cl)c(Cl)c2)C(=O)c2c(C#Cc3ccc(N(C)C)nc3)cnn21 [compound 12] |  |
| 4.07 | 105 | C[C@H]1CN(c2ccc(C(F)(F)F)cc2)C(=O)c2c(C#Cc3ccccc3)cnn21 [compound 5] |  |
| 10 | 105 | C[C@H]1CN(c2ccc(C(F)(F)F)cc2)C(=O)c2c(C#Cc3ccnc(N)c3)cnn21 [compound 10] |  |
| 5.62 | 106 | COc1ccc(C#Cc2cnn3c2C(=O)N(c2ccc(Cl)c(Cl)c2)C[C@@H]3C)cn1 [compound 6] |  |
| 2.24 | 105 | CNc1ccc(C#Cc2cnn3c2C(=O)N(c2ccc(Cl)c(Cl)c2)C[C@@H]3C)cn1 [compound 3] |  |
| 8.71 | 111 | CNc1ccc(C#Cc2cnn3c2C(=O)N(c2ccc(C(F)(F)F)c(Cl)n2)C[C@@H]3C)cn1 [compound 31] |  |

| IC50 [2] [nM] | Emax [2] [%] | SMILES | also measured |
| --- | --- | --- | --- |
| 0.832 | 106 | C[C@H]1CN(c2ccc(C(F)(F)F)c(Cl)c2)C(=O)c2c(C#Cc3cnc(N)cc3CO)cnn21 [compound 22] | ED50 [1]: > 0.63 mg/kg |
| 8.51 | 107 | COc1ccc(N2C[C@H](C)n3ncc(C#Cc4ccc(N)nc4)c3C2=O)cc1Cl [compound 8] |  |
| 1.1 | 108 | C[C@H]1CN(c2ccc(C(F)(F)F)c(Cl)c2)C(=O)c2c(C#Cc3ccc(N)nc3)cnn21 [compound 13] | ED50 [1]: 0.028 mg/kg; ED50 [3]: > 40 mg/kg |
| 41.7 | 102 | C[C@H]1CN(c2ccc(C(F)(F)F)cc2)C(=O)c2c(C#Cc3cnc(N)c(CF)c3)cnn21 [compound 21] |  |
| 7.08 | 104 | C[C@H]1CN(c2ccc(C(F)C(F)(F)F)cc2)C(=O)c2c(C#Cc3ccc(N)nc3)cnn21 (some centres unmarked) [compound 16] |  |
| 15.8 | 99 | CNc1ncccc1C#Cc1cnn2c1C(=O)N(c1ccc(C(F)(F)F)cc1)C[C@@H]2C [compound 24] |  |
| 2.75 | 106 | C[C@H]1CN(c2ccc(C(F)(F)F)cc2)C(=O)c2c(C#Cc3cnc(N)cc3CF)cnn21 [compound 23] |  |
| 1.12 | 105 | C[C@H]1CN(c2ccc(Cl)c(Cl)c2)C(=O)c2c(C#Cc3ccc(N)nc3)cnn21 [compound 2] |  |
| 1.58 | 106 | C[C@H]1CN(c2ccc(C(F)(F)F)cc2)C(=O)c2c(C#Cc3ccc(N)nc3)cnn21 [compound 1] | ED50 ([4]; route PO): 0.08 mg/kg; ED50 ([4]; route SC): 0.06 mg/kg; ED50 [1]: 0.17 mg/kg; ED50 [3]: > 40 mg/kg; ED50 at 1 h ([3]; pupil diameter >25 units 1 h post-administration, read-out: ED50 MYD Test 1): > 10 mg/kg |
| 14.8 | 105 | C[C@H]1CN(c2ccc(C(F)(F)F)cc2)C(=O)c2c(C#Cc3cccnc3N)cnn21 [compound 17] |  |
| 8.71 | 107 | Cc1cc(C#Cc2cnn3c2C(=O)N(c2ccc(C(F)(F)F)cc2)C[C@@H]3C)ccn1 [compound 9] |  |
| 2.69 | 107 | C[C@H]1CN(c2ccc(C(F)(F)F)c(F)c2)C(=O)c2c(C#Cc3ccc(N)nc3)cnn21 [compound 18] | ED50 [1]: 0.13 mg/kg |
| 53.7 | 101 | C[C@H]1CN(c2ccc(C(F)(F)F)cc2)C(=O)c2c(C#Cc3cncc(CO)c3)cnn21 [compound 28] |  |
| 2.4 | 103 | C[C@H]1CN(c2ccc(C(F)(F)F)cn2)C(=O)c2c(C#Cc3ccc(N)nc3)cnn21 [compound 4] |  |
| 2.51 | 109 | COc1nc(N2C[C@H](C)n3ncc(C#Cc4ccc(N)nc4)c3C2=O)ccc1C(F)(F)F [compound 33] |  |
|  |  | CN1CCc2cccc3c2[C@H]1Cc1ccc(O)c(O)c1-3 [Apomorphine alone, apomorphine] | Palpebral opening score, Median score ([4]; control rats, apomorphine 1.0 mg/kg i.v., LY-404039 2.5 mg/kg s.c., scores cumulated over 60 min): 43; Palpebral opening score, Occurrence score >26 (%) [4, 6]: 99.5%; Palpebral opening score, Occurrence score >34 (%) [4, 6]: 95.9%; Palpebral opening score, Occurrence score >34 (%) ([4]; control rats, scores cumulated over 60 min, listed as apomorphine alone): 95.5% |

| SMILES | IC50 [2] [nM] | Emax [2] [%] | also measured |
| --- | --- | --- | --- |
| C[C@H]1CN(c2ccc(C(F)(F)F)cc2)C(=O)c2c(C#Cc3ccc(S(=O)(=O)F)cc3)cnn21 [compound 35] | 42.7 | 108 |  |
| C[C@H]1CN(c2ccc(C(F)(F)F)cc2)C(=O)c2c(C#Cc3cccc(S(=O)(=O)F)c3)cnn21 [compound 34] | 14.5 | 110 |  |
